# Assay results reported in US9695155B2, “Herbicidal substituted pyrimidinyloxy benzene compounds” (E. I. DU PONT DE NEMOURS AND COMPANY, priority 2013, dated 2017).
# Experiments:
# [1] = test system: pigweed; assay: Test A preemergence; assay type: in vivo, Amaranthus retroflexus
# Method in brief: (§1)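 Injury scores run from 0, no effect, to 100, complete control, judged by eye against untreated plants roughly 10 days after treatment. Chemicals carried a surfactant in a non-phytotoxic solvent and went onto loam–sand soil preemergence or onto one- to two-leaf seedlings postemergence.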
# [2] = test system: wheat; assay: Test A postemergence; assay type: in vivo, Triticum aestivum
# Method in brief: as §1
# [3] = test system: corn; assay: Test A postemergence; assay type: in vivo, Zea mays
# Method in brief: as §1
# [4] = test system: giant foxtail; assay: Test C preemergence; assay type: in vivo, Setaria faberii; settings: Setaria faberi, pre-emergence
# Method in brief: (§2)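 Injury was assessed visually against controls 13 to 15 days after application, with 0 meaning no effect and 100 full control; missing entries are shown as a dash. Preemergence sprays hit seeded loam–sand soil, postemergence sprays hit 1- to 4-leaf plants.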
# [5] = test system: johnsongrass; assay: Test C preemergence; assay type: in vivo, Sorghum halepense; settings: Sorghum halepense, pre-emergence, preemergence, read-out: Johnsongrass plant response rating
# Method in brief: as §2
# [6] = test system: ragweed; assay: Test C preemergence; assay type: in vivo, Ambrosia elatior; settings: Ambrosia artemisiifolia, pre-emergence, preemergence, read-out: Ragweed plant response rating
# Method in brief: as §2
# [7] = test system: soybean; assay: Test C preemergence; assay type: in vivo, Glycine max; settings: Glycine max, pre-emergence, preemergence, read-out: Soybean plant response rating
# Method in brief: as §2
# [8] = test system: waterhemp; assay: Test C preemergence; assay type: in vivo, Amaranthus rudis; settings: Amaranthus tuberculatus, pre-emergence, preemergence, read-out: Waterhemp plant response rating
# Method in brief: as §2
# [9] = test system: galium; assay: Test C postemergence; assay type: in vivo, Galium aparine
# Method in brief: as §2
# [10] = test system: pigweed; assay: Test C postemergence; assay type: in vivo, Amaranthus retroflexus
# Method in brief: as §2
# [11] = test system: ragweed; assay: Test C postemergence; assay type: in vivo, Ambrosia elatior
# Method in brief: as §2
# [12] = test system: oilseed rape; assay: Test C postemergence; assay type: in vivo, Brassica napus
# Method in brief: as §2
# [13] = test system: velvetleaf; assay: Test C postemergence; assay type: in vivo, Abutilon theophrasti
# Method in brief: as §2
# [14] = test system: large (Lg) crabgrass; assay: Test A preemergence; assay type: in vivo, Digitaria sanguinalis; settings: 1000 g ai/ha, 0 to 100 scale, 0 no effect, 100 complete control
# Method in brief: as §1
# [15] = test system: morningglory; assay: Test A preemergence; assay type: in vivo, Ipomoea spp.; settings: 1000 g ai/ha, 0 to 100 scale, 0 no effect, 100 complete control, approx. 10 days
# Method in brief: as §1
# [16] = test system: velvetleaf; assay: Test A preemergence; assay type: in vivo, Abutilon theophrasti; settings: 1000 g ai/ha, 0 to 100 scale, 0 no effect, 100 complete control, approx. 10 days
# Method in brief: as §1
# [17] = 16 g ai/ha, scale 0 to 100 (0 no effect, 100 complete control)
# [18] = 62 g ai/ha, scale 0 (no effect) to 100 (complete control)
# [19] = 125 g ai/ha, scale 0 (no effect) to 100 (complete control)
# [20] = 1000 g ai/ha, 0 to 100 scale, 0 no effect, 100 complete control
# [21] = 8 g ai/ha, postemergence, 0 is no effect, 100 is complete control
# [22] = 16 g ai/ha, postemergence, 0 is no effect, 100 is complete control
compound,measurement,setting,value
"FC(F)(F)COc1cnn(-c2ccccc2Oc2ncc(Cl)cn2)c1 [Compound 138, 5-chloro-2-[2-[4-(2,2,2-trifluoroethoxy)-1H-pyrazol-1-yl]phenoxy]pyrimidine]",pest or weed control at 125 g/ha,"[1]; Amaranthus retroflexus, pre-emergence, 125 g ai/ha, 0 to 100 scale where 0 is no effect and 100 is complete control, read-out: Plant response rating, Pigweed",90%
same,pest or weed control at 500 g/ha,"[1]; Amaranthus retroflexus, pre-emergence, 240 h, 500 g ai/ha, 0 to 100 scale where 0 is no effect and 100 is complete control, read-out: Pigweed plant response rating",100%
same,plant injury at 125 g/ha,"[2]; Triticum aestivum, post-emergence, 240 h, 125 g ai/ha, 0 to 100 scale where 0 is no effect and 100 is complete control, read-out: Wheat plant response rating",50%
same,plant injury at 500 g/ha,"[2]; Triticum aestivum, post-emergence, 240 h, 500 g ai/ha, 0 to 100 scale where 0 is no effect and 100 is complete control, read-out: Plant response rating, Wheat",90%
same,plant injury at 125 g/ha,"[3]; Zea mays, post-emergence, 240 h, 125 g ai/ha, 0 to 100 scale where 0 is no effect and 100 is complete control, read-out: Corn plant response rating",60%
same,"Corn plant response rating (crop injury, 0 = no effect, 100 = complete kill) at 500 g/ha","[3]; Zea mays, post-emergence, 240 h, 500 g ai/ha, 0 to 100 scale where 0 is no effect and 100 is complete control",90%
same,pest or weed control at 16 g/ha,"[4]; 16 g ai/ha, preemergence, scale 0 to 100 (0 no effect, 100 complete control), read-out: Foxtail, Giant plant response rating",30%
same,pest or weed control at 62 g/ha,"[4]; 62 g ai/ha, preemergence, scale 0 (no effect) to 100 (complete control), read-out: Foxtail, Giant plant response rating",100%
same,pest or weed control at 125 g/ha,"[4]; 125 g ai/ha, preemergence, scale 0 (no effect) to 100 (complete control), read-out: Foxtail, Giant plant response rating",100%
same,pest or weed control at 31 g/ha,"[4]; Preemergence, 31 g ai/ha, scale 0 to 100, 0 no effect, 100 complete control, read-out: Plant response rating, Foxtail, Giant",90%
same,pest or weed control at 16 g/ha,[5]; [17],0%
same,pest or weed control at 62 g/ha,[5]; [18],40%
same,pest or weed control at 125 g/ha,[5]; [19],65%
same,pest or weed control at 16 g/ha,[6]; [17],0%
same,pest or weed control at 62 g/ha,[6]; [18],5%
same,pest or weed control at 125 g/ha,[6]; [19],10%
same,plant injury at 16 g/ha,[7]; [17],20%
same,plant injury at 62 g/ha,[7]; [18],90%
same,plant injury at 125 g/ha,[7]; [19],90%
same,pest or weed control at 16 g/ha,[8]; [17],100%
same,pest or weed control at 62 g/ha,[8]; [18],100%
same,pest or weed control at 125 g/ha,[8]; [19],100%
same,pest or weed control at 16 g/ha,"[9]; Galium, post-emergence, 16 g ai/ha, postemergence, 0 is no effect, 100 is complete control, read-out: Plant response rating (0 to 100), Galium",50%
same,pest or weed control at 125 g/ha,"[9]; Galium, post-emergence, 125 g ai/ha, postemergence, visual rating, scale 0 to 100 (0 no effect, 100 complete control), read-out: Plant response rating, Galium",85%
same,pest or weed control at 62 g/ha,"[9]; Galium, post-emergence, Postemergence, 62 g ai/ha, scale 0 to 100 (0 no effect, 100 complete control), read-out: Plant response rating, Galium",65%
same,pest or weed control at 16 g/ha,"[10]; Amaranthus retroflexus, post-emergence, 16 g ai/ha, postemergence, 0 is no effect, 100 is complete control, read-out: Plant response rating (0 to 100), Pigweed",60%
same,pest or weed control at 125 g/ha,"[10]; Amaranthus retroflexus, post-emergence, 125 g ai/ha, postemergence, visual rating, scale 0 to 100 (0 no effect, 100 complete control), read-out: Plant response rating, Pigweed",80%
same,pest or weed control at 62 g/ha,"[10]; Amaranthus retroflexus, post-emergence, Postemergence, 62 g ai/ha, scale 0 to 100 (0 no effect, 100 complete control), read-out: Plant response rating, Pigweed",80%
same,pest or weed control at 16 g/ha,"[11]; Ambrosia artemisiifolia, post-emergence, 16 g ai/ha, postemergence, 0 is no effect, 100 is complete control, read-out: Plant response rating (0 to 100), Ragweed",40%
same,pest or weed control at 125 g/ha,"[11]; Ambrosia artemisiifolia, post-emergence, 125 g ai/ha, postemergence, visual rating, scale 0 to 100 (0 no effect, 100 complete control), read-out: Plant response rating, Ragweed",45%
same,pest or weed control at 62 g/ha,"[11]; Ambrosia artemisiifolia, post-emergence, Postemergence, 62 g ai/ha, scale 0 to 100 (0 no effect, 100 complete control), read-out: Plant response rating, Ragweed",40%
same,plant injury at 16 g/ha,"[12]; Brassica napus, post-emergence, 16 g ai/ha, postemergence, 0 is no effect, 100 is complete control, read-out: Plant response rating (0 to 100), Oilseed Rape",5%
same,plant injury at 125 g/ha,"[12]; Brassica napus, post-emergence, 125 g ai/ha, postemergence, visual rating, scale 0 to 100 (0 no effect, 100 complete control), read-out: Plant response rating, Oilseed Rape",80%
same,plant injury at 62 g/ha,"[12]; Brassica napus, post-emergence, Postemergence, 62 g ai/ha, scale 0 to 100 (0 no effect, 100 complete control), read-out: Plant response rating, Oilseed Rape",60%
same,pest or weed control at 16 g/ha,"[13]; Abutilon theophrasti, post-emergence, 16 g ai/ha, postemergence, 0 is no effect, 100 is complete control, read-out: Plant response rating (0 to 100), Velvetleaf",30%
same,pest or weed control at 125 g/ha,"[13]; Abutilon theophrasti, post-emergence, 125 g ai/ha, postemergence, visual rating, scale 0 to 100 (0 no effect, 100 complete control), read-out: Plant response rating, Velvetleaf",55%
same,pest or weed control at 62 g/ha,"[13]; Abutilon theophrasti, post-emergence, Postemergence, 62 g ai/ha, scale 0 to 100 (0 no effect, 100 complete control), read-out: Plant response rating, Velvetleaf",20%
CC(=NO)c1cn(-c2c(Br)cccc2Oc2ncc(Cl)cn2)nn1 [Compound 115],"Plant response rating, Crabgrass, Large",[14],100
same,Morningglory plant response rating,[15],50
same,Pigweed plant response rating,"[1]; 1000 g ai/ha, 0 to 100 scale, 0 no effect, 100 complete control, approx. 10 days",100
same,Velvetleaf plant response rating,[16],100
same,"Plant response rating, Wheat",[2]; [20],90
same,"Plant response rating, Corn",[3]; [20],90
same,"Plant response rating (0 to 100), Galium",[9]; [21],5
same,"Plant response rating (0 to 100), Galium",[9]; [22],40
same,"Plant response rating (0 to 100), Pigweed",[10]; [21],15
same,"Plant response rating (0 to 100), Pigweed",[10]; [22],50
same,"Plant response rating (0 to 100), Ragweed",[11]; [21],5
same,"Plant response rating (0 to 100), Ragweed",[11]; [22],5
same,"Plant response rating (0 to 100), Oilseed Rape",[12]; [21],0
same,"Plant response rating (0 to 100), Oilseed Rape",[12]; [22],0
same,"Plant response rating (0 to 100), Velvetleaf",[13]; [21],5
same,"Plant response rating (0 to 100), Velvetleaf",[13]; [22],5
